The values below come from patent US6759538B2, “Substituted diphenyl heterocycles useful for treating HCV infection” (priority 2001, dated 2004).

For orientation: IC50 means the concentration needed to halve the response being measured.

In this experiment the target is HCV replicon. In words: HCV replicon assay (luciferase). In kind it is cell-based, Hepatitis C virus (HCV). As to conditions: 5-2 Luc replicon cells, 24 hours with compound, luciferase emission; first symbol of Replicon/Western. From the text: In one embodiment, the inhibitory activity of the compounds can be confirmed in a replicon assay that assesses the ability of a test compound to block or inhibit HCV replication in replicon cells. One example of a suitable replicon assay is the liver cell-line Huh 7-based replicon assay described in Lohmann et al., 1999, Science 285:110-113. A specific example of this replicon assay which utilizes luciferase translation is provided in the Examples Section. In one embodiment of this assay, the amount of test compound that yields a 50% reduction in translation as compared to a control cell (IC50) may be determined.
The inhibitory activity of certain exemplary compounds of the invention was confirmed using an HCV replicon assay. The HCV replicon can include such features as the HCV 5′ untranslated region including the HCV IRES, the HCV 3′ untranslated region, selected HCV genes encoding HCV polypeptides, selectable markers, and a reporter gene such as luciferase, GFP, etc. In the assay, actively dividing 5-2 Luc replicon-comprising cells (obtained from Rolf Bartenschlager; see Lohmann et al., 1999, Science 285:110-113) were seeded at a density of between about 5,000 and 7,500 cells/well onto 96 well plates (about 90 μl of cells per well) and incubated at 37° C. and 5% CO2 for 24 hours. Then, the test compound (in a volume of about 10 μl) was added to the wells at various concentrations and the cells were incubated for an additional 24 hours before luciferase assay. The media was aspirated from each well and Bright-Glo (Promega, Madison, Wis.) luciferase assay reagents were added to each well according to the manufacturer's instructions. Briefly, the Bright-Glo reagent was diluted 1:1 with PBS and 100 μl of diluted reagent was added to each well. After 5 min of incubation at room temperature, luciferin emission was quantified with a luminometer. In this assay, the amount of test compound that yielded a 50% reduction in luciferase emission (IC50) was determined.
On to `O=C(Nc1ccc(S(=O)(=O)NN2CCOCC2)c(-c2cc(-c3c(Cl)cccc3Cl)no2)c1)C(Cl)Cl` [Compound 107, 2,2-Dichloro-N-[3-[3-(2,6-dichlorophenyl)-5-isoxazolyl]-4-(N-morpholinosulfamoyl)-phenyl] Acetamide], for which the IC50 was at most 10 µM. The value for `CN1CCN(c2cccc(C(F)(F)F)c2-c2cc(-c3cccc(NC(=O)C(Cl)Cl)c3)on2)CC1` [Compound 109, 2,2-Dichloro-N-[3-[3-[2-trifluoromethyl-6-(4-methylpiperazino)phenyl]-5-isoxazolyl]-phenyl] Acetamide] was at most 10 µM.

On to `O=C(Nc1cccc(-c2cc(-c3c(Cl)cccc3C3CCCCC3)no2)c1)C(Cl)Cl` [Compound 111, 2,2-Dichloro-N-[3-[3-(2-chloro-6-cyclohexylphenyl)-5-isoxazolyl]phenyl] Acetamide], for which the IC50 is at most 10 µM.

In the case of `O=C(Nc1cccc(-c2cc(-c3ccccc3OC(F)(F)F)no2)c1)C(Cl)Cl` [Compound 113, 2,2-Dichloro-N-[3-[3-(2-trifluoromethoxyphenyl)-5-isoxazolyl]phenyl] Acetamide], the 50% inhibitory concentration (IC50) was at most 10 µM.

On to `COC(=O)c1ccccc1-c1cc(-c2cccc(NC(=O)C(Cl)Cl)c2)on1` [Compound 115, 2,2-Dichloro-N-[3-[3-(2-carbomethoxy)phenyl-5-isoxazolyl]phenyl] Acetamide], for which the IC50 was at most 10 µM. The value for `O=C(Nc1cccc(-c2cc(-c3c(Cl)cccc3-n3ccnc3)no2)c1)C(Cl)Cl` [Compound 117, 2,2-Dichloro-N-[3-[3-[2-chloro-6-(N-imidazolyl)phenyl]-5-isoxazolyl]phenyl] Acetamide] was at most 10 µM. Then `CC(C)Oc1ccccc1-c1cc(-c2cccc(NC(=O)C(Cl)Cl)c2)on1` [Compound 119, 2,2-Dichloro-N-[3-[3-(2-isopropyloxyphenyl)-5-isoxazolyl]phenyl] Acetamide], with at most 10 µM; and `CC(C)c1cccc(C(C)C)c1-c1cc(-c2cccc(NC(=O)C(Cl)Cl)c2)on1` [Compound 121, 2,2-Dichloro-N-[3-[3-(2,6-diisopropylphenyl)-5-isoxazolyl]phenyl] Acetamide], with at most 10 µM; and `O=C(Nc1cccc(-c2cc(-c3ccccc3-c3ccccc3)no2)c1)C(Cl)Cl` [Compound 123, 2,2-Dichloro-N-[3-[3-(2-phenyl)phenyl-5-isoxazolyl]phenyl] Acetamide], with at most 10 µM. Then `O=C(Nc1cccc(-c2cc(-c3c(Cl)cc(OCCN4CCCCC4)cc3Cl)no2)c1)C(Cl)Cl` [Compound 125, 2,2-Dichloro-N-[3-[3-[2,6-dichloro-4-(N-piperidinylethylenoxy)phenyl]-5-isoxazolyl]-phenyl] Acetamide], with at most 10 µM; and `COc1ccc(NC(=O)C(Cl)Cl)cc1-c1cc(-c2c(Cl)cccc2Cl)no1` [Compound 127, 2,2-Dichloro-N-[3-[3-(2,6-dichlorophenyl)-5-isoxazolyl]-4-methoxyphenyl] Acetamide], with at most 10 µM; and `O=C(Nc1cccc(-c2cc(-c3ccccc3C3CCCC3)no2)c1)C(Cl)Cl` [Compound 129, 2,2-Dichloro-N-[3-[3-(2-cyclopentylphenyl)-5-isoxazolyl]phenyl] Acetamide], with at most 10 µM. Take `CN(C)CCN(C)c1cccc(Cl)c1-c1cc(-c2cccc(NC(=O)C(Cl)Cl)c2)on1` [Compound 131, 2-Dichloro-N-[3-[3-[2-chloro-6-(N,N-dimethylethylene-N′-methylamino)phenyl]-5-isoxazolyl]-phenyl] Acetamide]: the IC50 was at most 10 µM. Then `O=C(Nc1cccc(-c2cc(-c3c(Cl)ccc(Cl)c3Cl)no2)c1)C(Cl)Cl` [Compound 137, 2,2-Dichloro-N-[3-[3-(2,3,6-trichlorophenyl)-5-isoxazolyl]phenyl] Acetamide], with above 10 µM; and `O=C(O)c1ccc(Cl)c(-c2cc(-c3cccc(NC(=O)C(Cl)Cl)c3)on2)c1Cl` [Compound 139, 2,2-Dichloro-N-[3-[3-(3-carboxy-2,6-dichlorophenyl)-5-isoxazolyl]phenyl] Acetamide], with above 10 µM. The value for `O=C(Nc1cccc(-c2cc(-c3cc(C(F)(F)F)ccc3Cl)no2)c1)C(Cl)Cl` [Compound 141, 2,2-Dichloro-N-[3-[3-(2-chloro-5-trifluoromethylphenyl)-5-isoxazolyl]phenyl] Acetamide] was above 10 µM; that for `O=C(Nc1cccc(-c2cc(-c3c(Cl)cc(Cl)cc3OCCN3CCOCC3)no2)c1)C(Cl)Cl` [Compound 143, 2,2-Dichloro-N-[3-[3-[2,4-dichloro-6-(N-morpholino-2-ethyleneoxy)phenyl]-5-isoxazolyl]-phenyl] Acetamide] was above 10 µM; that for `O=C(Nc1cccc(-c2cc(-c3c(Cl)cccc3Cl)no2)c1)C(F)F` [Compound 145, 2,2-Difluoro-N-[3-[3-(2,6-dichlorophenyl)-5-isoxazolyl]phenyl] Acetamide] was above 10 µM. The value for `Cc1ccc(F)c(-c2cc(-c3cccc(NC(=O)C(Cl)Cl)c3)on2)c1F` [Compound 149, 2,2-Dichloro-N-[3-[3-(2,6-difluoro-3-methylphenyl)-5-isoxazolyl]phenyl] Acetamide] was above 10 µM. Regarding `CCOC(=O)C1CCN(c2cccc(Cl)c2-c2cc(-c3cccc(NC(=O)C(Cl)Cl)c3)on2)CC1` [Compound 151, 2,2-Dichloro-N-[3-[3-[2-chloro-6-(4-carboethoxypiperidino)phenyl]-5-isoxazolyl]-phenyl] Acetamide], the IC50 is above 10 µM. The value for `CS(=O)(=O)c1cccc(F)c1-c1cc(-c2cccc(NC(=O)C(Cl)Cl)c2)on1` [Compound 153, 2,2-Dichloro-N-[3-[3-(2-fluoro-6-methylsulfonyl)phenyl-5-isoxazolyl]phenyl] Acetamide] was above 10 µM. The value for `O=C(O)c1ccccc1-c1cc(-c2cccc(NC(=O)C(Cl)Cl)c2)on1` [Compound 157, 2,2-Dichloro-N-[3-[3-(2-carboxyphenyl)-5-isoxazolyl]phenyl] Acetamide] was above 10 µM; that for `O=C(Nc1cccc(-c2cc(-c3ccccc3OCc3ccccc3)no2)c1)C(Cl)Cl` [Compound 161, 2,2-Dichloro-N-[3-[3-(2-benzyloxyphenyl)-5-isoxazolyl]phenyl] Acetamide] was above 10 µM; that for `Cc1ccc(-c2cc(-c3c(Cl)cccc3Cl)no2)cc1NC(=O)C(Cl)Cl` [Compound 165, 2,2-Dichloro-N-[3-[3-(2,6-dichlorophenyl)-5-isoxazolyl]-6-methylphenyl] Acetamide] was above 10 µM. Then `Cc1c(NC(=O)C(Cl)Cl)cccc1-c1cc(-c2c(Cl)cccc2Cl)no1` [Compound 167, 2,2-Dichloro-N-[3-[3-(2,6-dichlorophenyl)-5-isoxazolyl]-2-methylphenyl] Acetamide], with above 10 µM; and `O=C(Nc1cc(-c2cc(-c3c(Cl)cccc3Cl)no2)ccc1N1CCOCC1)C(Cl)Cl` [Compound 169], with above 10 µM; and `O=C(Nc1cc(-c2cc(-c3c(Cl)cccc3Cl)no2)ccc1OCCN1CCOCC1)C(Cl)Cl` [Compound 171, 2,2-Dichloro-N-[3-[3-(2,6-dichlorophenyl)-5-isoxazolyl]-6-(N-morpholino-2-ethyleneoxy)phenyl] Acetamide], with above 10 µM.
